Test results published in US10150757B2, “Quinazolinone derivatives as PARP inhibitors” (Janssen Pharmaceutica NV, priority 2004, dated 2018).

Biological target: PARP-1 enzyme (Homo sapiens, UniProt P09874)
Assay: In vitro scintillation proximity assay (SPA) for PARP-1 inhibitory activity
Assay type: biochemical
Conditions: [3H]-NAD+, biotinylated histones, nicked DNA; read-out: in vitro SPA assay PARP-1 pIC50 (converted)
Protocol: In Vitro Scintillation Proximity Assay (SPA) for PARP-1 Inhibitory Activity
Compounds of the present invention were tested in an in vitro assay based on SPA technology (proprietary to Amersham Pharmacia Biotech).
In principle, the assay relies upon the well established SPA technology for the detection of poly(ADP-ribosyl)ation of biotinylated target proteins, i.e histones. This ribosylation is induced using nicked DNA activated PARP-1 enzyme and [^3H]-nicotinamide adenine dinucleotide ([^3H]-NAD^+) as ADP-ribosyl donor.
As inducer of PARP-1 enzyme activity, nicked DNA was prepared. For this, 25 mg of DNA (supplier: Sigma) was dissolved in 25 ml DNAse buffer (10 mM Tris-HCl, pH 7.4; 0.5 mg/ml Bovine Serum Albumine (BSA); 5 mM MgCl2.6H2O and 1 mM KCl) to which 50 μl DNAse solution (1 mg/ml in 0.15M NaCl) was added. After an incubation of 90 min. at 37° C., the reaction was terminated by adding 1.45 g NaCl, followed by a further incubation at 58° C. for 15 min. The reaction mixture was cooled on ice and dialysed at 4° C. for respectively 1.5 and 2 hours against 1.5 l of 0.2M KCl, and twice against 1.5 l of 0.01M KCl for 1.5 and 2 h respectively. The mixture was aliquoted and stored at −20° C. Histones (1 mg/ml, type II-A, supplier: Sigma) were biotinylated using the biotinylation kit of Amersham and stored aliquoted at −20° C. A stock solution of 100 mg/ml SPA poly(vinyl toluene) (PVT) beads (supplier: Amersham) was made in PBS. A stock solution of [^3H]-NAD^+ was made by adding 120 μl of [^3H]-NAD^+ (0.1 mCi/ml, supplier: NEN) to 6 ml incubation buffer (50 mM Tris/HCl, pH 8; 0.2 mM DTT; 4 mM MgCl2). A solution of 4 mM NAD^+ (supplier: Roche) was made in incubation buffer (from a 100 mM stock solution in water stored at −20° C.). The PARP-1 enzyme was produced using art known techniques, i.e. cloning and expression of the protein starting from human liver cDNA. Information concerning the used protein sequence of the PARP-1 enzyme including literature references can be found in the Swiss-Prot database under primary accession number P09874. Biotinylated histones and PVT-SPA beads were mixed and pre-incubated for 30 min. at room temperature. PARP-1 enzyme (concentration was lot dependent) was mixed with the nicked DNA and the mixture was pre-incubated for 30 min. at 4° C. Equal parts of this histones/PVT-SPA beads solution and PARP-1 enzyme/DNA solution were mixed and 75 μl of this mixture together with 1 μl of compound in DMSO and 25 μl of [^3H]-NAD^+ was added per well into a 96-well microtiterplate. The final concentrations in the incubation mixture were 2 μg/ml for the biotinylated histones, 2 mg/ml for the PVT-SPA beads, 2 μg/ml for the nicked DNA and between 5-10 μg/ml for the PARP-1 enzyme. After incubation of the mixture for 15 min. at room temperature, the reaction was terminated by adding 100 μl of 4 mM NAD^+ in incubation buffer (final concentration 2 mM) and plates were mixed.
The beads were allowed to sediment for at least 15 min. and plates transferred to a TopCountNXT™ (Packard) for scintillation counting, values were expressed as counts per minute (cpm). For each experiment, controls (containing PARP-1 enzyme and DMSO without compound), a blank incubation (containing DMSO but no PARP-1 enzyme or compound) and samples (containing PARP-1 enzyme and compound dissolved in DMSO) were run in parallel. All compounds tested were dissolved and eventually further diluted in DMSO. In first instance, compounds were tested at a concentration of 10^−5M. […] In each test, the blank value was subtracted from both the control and the sample values. The control sample represented maximal PARP-1 enzyme activity. For each sample, the amount of cpm was expressed as a percentage of the mean cpm value of the controls. […] Herein the effects of test compounds are expressed as pIC50 (the negative log value of the IC50-value).

Chain of PARP-1 enzyme (P09874 whole entry): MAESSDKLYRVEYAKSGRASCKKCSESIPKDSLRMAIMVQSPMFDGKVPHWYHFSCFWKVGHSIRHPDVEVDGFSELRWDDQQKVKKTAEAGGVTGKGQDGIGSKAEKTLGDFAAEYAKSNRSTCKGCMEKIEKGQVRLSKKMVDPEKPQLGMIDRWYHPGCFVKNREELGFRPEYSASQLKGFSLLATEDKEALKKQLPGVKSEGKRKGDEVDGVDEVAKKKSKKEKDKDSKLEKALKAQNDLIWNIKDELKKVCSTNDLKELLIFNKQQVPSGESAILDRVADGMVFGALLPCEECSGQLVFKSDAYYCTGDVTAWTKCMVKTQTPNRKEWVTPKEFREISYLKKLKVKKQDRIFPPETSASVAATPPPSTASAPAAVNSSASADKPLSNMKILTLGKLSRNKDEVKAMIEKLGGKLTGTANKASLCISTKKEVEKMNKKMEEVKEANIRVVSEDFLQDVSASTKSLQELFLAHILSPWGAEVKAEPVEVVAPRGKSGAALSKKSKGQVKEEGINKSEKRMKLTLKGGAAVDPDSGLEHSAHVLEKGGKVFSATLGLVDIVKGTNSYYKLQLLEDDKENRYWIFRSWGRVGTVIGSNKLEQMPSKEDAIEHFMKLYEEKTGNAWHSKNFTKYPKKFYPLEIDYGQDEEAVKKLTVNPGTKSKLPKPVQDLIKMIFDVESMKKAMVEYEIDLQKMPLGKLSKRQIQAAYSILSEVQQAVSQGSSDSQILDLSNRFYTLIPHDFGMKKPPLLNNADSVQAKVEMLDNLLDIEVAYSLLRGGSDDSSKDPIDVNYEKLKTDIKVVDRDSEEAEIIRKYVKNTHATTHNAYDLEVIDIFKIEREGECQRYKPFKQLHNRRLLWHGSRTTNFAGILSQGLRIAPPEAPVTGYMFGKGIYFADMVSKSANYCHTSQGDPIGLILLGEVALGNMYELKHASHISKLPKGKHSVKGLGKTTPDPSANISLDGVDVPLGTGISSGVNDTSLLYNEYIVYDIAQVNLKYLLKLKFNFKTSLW

In order of rising IC50:
1. O=c1[nH]c(NCCN2CCN(c3n[nH]c4ccccc34)CC2)nc2ccc(Cl)cc12 [Compound 1]  7.76 nM
2. Cc1cccc2nc(NCCN3CCN(c4n[nH]c5ccccc45)CC3)[nH]c(=O)c12 [Compound 39]  9.93 nM
3. O=c1[nH]c(NCCN2CCC(c3n[nH]c4cc(F)ccc34)CC2)nc2ccc(Cl)cc12 [Compound 36]  10.8 nM
4. Cc1ccc2nc(NCCN3CCN(c4n[nH]c5ccccc45)CC3)[nH]c(=O)c2c1 [Compound 43]  12.4 nM
5. Cc1ccc2nc(NCCN3CCC(c4n[nH]c5cc(F)ccc45)CC3)[nH]c(=O)c2c1 [Compound 37]  15.3 nM
6. O=c1[nH]c(NCCN2CCC(c3n[nH]c4cc(F)ccc34)CC2)nc2ccccc12 [Compound 21]  25.5 nM
7. O=c1[nH]c(NCCN2CCN(c3n[nH]c4ccccc34)CC2)nc2cc(Cl)ccc12 [Compound 44]  29.3 nM
8. O=c1[nH]c(NCCN2CCC(Nc3nc4ccccc4c(=O)[nH]3)CC2)nc2ccccc12 [Compound 30]  32.3 nM
9. O=c1[nH]c(NCCN2CCC(Nc3n[nH]c(=O)c4ccccc34)CC2)nc2ccccc12 [Compound 33]  34.8 nM
10. O=c1[nH]c(NCCN2CCC(c3n[nH]c4cc(F)ccc34)CC2)nc2cc(Cl)ccc12 [Compound 31]  39.4 nM
11. O=c1[nH]c(NCCCN2CCN(c3n[nH]c4cc(F)ccc34)CC2)nc2ccccc12 [Compound 27]  44.4 nM
12. O=c1[nH]c(NCCN2CCN(c3n[nH]c4cc(F)ccc34)CC2)nc2ccccc12 [Compound 41]  44.5 nM
13. O=c1[nH]c(NCCCN2CCN(c3n[nH]c4ccccc34)CC2)nc2ccccc12 [Compound 22]  46.3 nM
14. O=c1[nH]c(NCCCN2CCC(O)(c3ccc(Cl)cc3)CC2)nc2ccccc12 [Compound 2]  133 nM
15. O=c1[nH]c(NCCCN2CCC(c3n[nH]c4cc(F)ccc34)CC2)nc2ccccc12 [Compound 25]  190 nM
16. Nc1c(Cl)cc(C(=O)NC2CCN(CCCNc3nc(O)c4ccccc4n3)CC2)c2c1CCO2 [Compound 45]  225 nM
17. O=C(c1ccc(F)cc1)C1CCN(CCNc2nc3ccccc3c(=O)[nH]2)CC1 [Compound 46]  231 nM
18. O=c1nc(NCCCN2CCC(Nc3nccc4ccccc34)CC2)[nH]c2ccccc12 [Compound 40]  322 nM
19. CO[C@@H]1CN(CCCNc2nc(O)c3ccccc3n2)CC[C@@H]1NC(=O)c1cc(Cl)c(N)c2c1OCCC2 [Compound 6]  387 nM
20. O=c1[nH]c(NCCN2CCN(c3nc4ccccc4c(=O)[nH]3)CC2)nc2ccccc12 [Compound 38]  424 nM
21. O=c1[nH]c(NCCCN2CCC(c3noc4cc(F)ccc34)CC2)nc2ccccc12 [Compound 26]  425 nM
22. CCc1cc2cc(CN3CCN(CCNc4nc5ccccc5c(=O)[nH]4)CC3)ccc2nc1OC [Compound 3]  535 nM
23. CO[C@@H]1CN(CCCNc2nc(O)c3ccccc3n2)CCN1NC(=O)c1cc(Cl)c(N)c2c1OC(C)(C)C2 [Compound 8]  535 nM
24. Nc1c(Cl)cc(C(=O)OCC2CCN(CCNc3nc4ccccc4c(=O)[nH]3)CC2)c2c1OCCO2 [Compound 7]  592 nM
25. CC1(C)Cc2c(N)c(Cl)cc(C(=O)NC3CCN(CCCCNc4nc(O)c5ccccc5n4)CC3)c2O1 [Compound 5]  638 nM
26. O=c1[nH]c(NCCCN2CCC(c3c[nH]c4ccccc34)CC2)nc2ccccc12 [Compound 20]  675 nM
27. O=C(NC1CCN(CCCNc2nc3ccccc3c(=O)[nH]2)CC1)c1ccccc1 [Compound 23]  687 nM
28. CC1(C)Cc2c(N)c(Cl)cc(C(=O)NC3CCN(CCCNc4nc(O)c5ccccc5n4)CC3)c2O1 [Compound 4]  718 nM
29. O=c1[nH]c(NCCCN2CCN(c3nsc4ccccc34)CC2)nc2ccccc12 [Compound 24]  785 nM
30. O=c1[nH]c(NCCCN2CCC(n3c(=O)[nH]c4ccccc43)CC2)nc2ccccc12 [Compound 29]  785 nM
31. O=c1[nH]c(NCCCN2CCC(Nc3cccc4ccccc34)CC2)nc2ccccc12 [Compound 42]  841 nM
32. CO[C@H]1CN(CCCNc2nc3ccccc3c(=O)[nH]2)CC[C@H]1NC(=O)c1cc(Cl)cc2c1OC(C)(C)C2 [Compound 18]  847 nM
33. CCCCn1cc(C2CCN(CCCNc3nc4ccccc4c(=O)[nH]3)CC2)c2ccccc21 [Compound 28]  1490 nM
